Like-named read-outs stand apart in the source and are kept apart here.
Columns and labels:
[1] = Fluorocarbon (F-decalin) emulsions: average particle size and stability; type: physicochemical; settings: for Average Particle Size After 1 month: stored at 25° C.
Experimental: ^a Emulsions prepared by microfluidization.
Additional stable perfluorodecalin (50% w/v) emulsions based on the perfluoroalkylated phosphatidylcholines 11 or 12 (2 or 3% w/v) as the sole surfactant have been prepared by sonication.
^a Emulsions prepared by sonication
^b The emulsions are stored at 25° C.
^c The emulsions are stored at 50° C.
^a All the emulsions are prepared by microfluidization and stored at
The new perfluoroalkylated surfactants were solubilized or dispersed into water. Then the fluorocarbon was added under agitation. Any emulsification method like sonication can be used but mechanical procedures such as microfluidization or high pressure homogenization are preferred. The emulsion obtained can be used as an O2 carrier. The significant stabilization effect which can be obtained by incorporating the new F-alkyl surfactants is illustrated for various emulsion formulations (see Tables above).

[2] = Liposome preparation: average size and stability; type: physicochemical
Experimental: 1) Lipid 12 dissolved in chloroform was placed in a round bottom flask and the solvent evaporated by rotation under argon to produce a uniform film of dry lipid. Residual traces of chloroform were removed under vacuum (10^-3 mm Hg, 3 h). Dried lipid is suspended in HEPES buffer (10^-2 M,pH 7), vortexed for 5 ran., then probe sonicated (dial 7 on a Branson B30 sonifier, Power 4, Pulse 50, 3 mn.) 15° C. above phase transition temperature, to produce a clear bluish dispersion. Final concentration of 12 is 3% (w/v). Average size measurements were realised by light scattering on a Coulter Model N4SD, sub-Micron Particle Analyser: 0,12 μm.
2) Same dispersion procedure applied to powder lipid 12 produced a clear dispersion with an average particle size 0,12 μm.
Liposomes were observed by electronic microscopy after freeze-etching as unilamellar and multilamellar vesicles.

[3] = system: mice; test: Injection into the tail vein of mice (deaths, growth); type: in vivo; settings: 500 μl in NaCl 9%, 10 mice of 20-25g, observed for 35 days
[4] = Interfacial tension and spreading coefficient between water and perfluorodecalin; type: physicochemical; settings: 1 g/l in water; for γi (interfacial tension between water and perfluorodecalin): (+0.3), 56 mNm^-1 in the absence of surfactant; for Spreading Coef.: -56 mNm^-1 in the absence of surfactant
Experimental: (§1) The strong surface activity of the compounds encompassed by this invention is illustrated in particular by the strong lowering of the surface tension (γs) they cause when added to water, as shown by the examples of surface tensions (measured at 20° C. and expressed in milliNewton.meter^-1) and calculated spreading coefficients collected in the Table below: […]

[5] = Surface tension of aqueous solutions at 20° C.; type: physicochemical; settings: 1 g/l in water, (+0.3)
Experimental: as §1

[6] = Growth and viability of lymphoblastoid cell cultures of the Namalva strain; type: cell-based; settings: human, namalva lymphoblastoid cells, control = 100%; for activity: read-out: Cell Culture Growth %; for viability: read-out: Cell Culture Viability %
[7] = Table I, 3% compound (Ref.: 3% EYP), 50% w/v F-decalin, 1 month at 50° C.
[8] = Table I, 3% compound (Ref.: 3% EYP), 50% w/v F-decalin, microfluidization
[9] = Table III, 1% compound + 2% EYP (Ref.: 3% EYP), 20% w/v F-decalin, 1 month at 25° C.
[10] = Table III, 1% compound + 2% EYP (Ref.: 3% EYP), 20% w/v F-decalin, sonication
[11] = Table IV, 0.66% compound + 1.33% EYP, 100% w/v F-decalin, stored at 50° C.

SMILES: C[N+](C)(C)CCOP(=O)([O-])OCC(COC(=O)CCCCC(F)(F)C(F)(F)C(F)(F)C(F)(F)C(F)(F)C(F)(F)F)OC(=O)CCCCC(F)(F)C(F)(F)C(F)(F)C(F)(F)C(F)(F)C(F)(F)F (racemic) [Compound 12, 1,2-di [(11-F-hexyl)pentanoyl] 3-[2' -(N,N,N-trimethylamino)ethylphosphoryl] rac-glycerol]
- increase in average particle size ([1]; perfluorodecalin (50% w/v) emulsions, 2 or 3% w/v sole surfactant, sonication): 10%
- Average size of liposomes ([2]; 3% (w/v), from dried lipid film, HEPES buffer pH 7, probe sonicated, light scattering): 0,12 μm
- average particle size of dispersion ([2]; same dispersion procedure applied to powder lipid): 0,12 μm
- concentration of which injection caused no deaths and did not perturb the normal growth [3]: 100000 µg/mL

SMILES: O=P(OCCC(F)(F)C(F)(F)C(F)(F)C(F)(F)C(F)(F)C(F)(F)C(F)(F)C(F)(F)F)(N1CCOCC1)N1CCOCC1 [Compound 2, [2-(F-octyl)ethyl] dimorpholinohosphoramidate]
- γi (interfacial tension between water and perfluorodecalin) [4]: 1.0 mNm^-1
- Spreading Coef. [4]: -0.6 mNm^-1
- γs (surface tension) [5]: 22.5 mNm^-1
- activity ([6]; 1 g/l in 9% of NaCl): 67%
- viability ([6]; 1 g/l in 9% of NaCl): 106%

SMILES: C[N+](C)(C)CCOP(=O)([O-])OCCC(F)(F)C(F)(F)C(F)(F)C(F)(F)C(F)(F)C(F)(F)C(F)(F)C(F)(F)F [Compound 5, [2-(F-octyl)ethyl] [2'-N,N,N trimethylamino ethyl] phosphate]
- emulsion stability (in words) ([1]; 50% w/v F-decalin emulsions, 1% surfactant where stated): remain stable at 50 °C for at least one month
- Average Particle Size After Preparation ([1]; Table I, 1% compound (Ref.: 1% EYP), 50% w/v F-decalin, microfluidization): 0.48 μm
- Relative Increase % (particle size) ([1]; Table I, 1% compound, 50% w/v F-decalin, 1 month at 50° C.): 14%
- Average Particle Size After 1 month at 50° C. ([1]; Table I, 1% compound, 50% w/v F-decalin, microfluidization): 0.55 μm
- Relative Increase % (particle size) [1, 7]: 50%
- Average Particle Size After 1 month at 50° C. [1, 8]: 0.30 μm
- Average Particle Size After Preparation [1, 8]: 0.20 μm
- Relative Increase % (particle size) [1, 9]: 100%
- Average Particle Size After Preparation [1, 10]: 0.15 μm
- Average Particle Size After 1 month [1, 10]: 0.29 μm
- Average Particle Size After Preparation ([1]; Table IV, 0.66% compound + 1.33% EYP (Ref.: 2% EYP), 100% w/v F-decalin, microfluidization): 0.6 μm
- Average Particle size After 3 months ([1]; Table IV, 0.66% compound + 1.33% EYP (Ref.: 2% EYP), 100% w/v F-decalin, stored at 50° C.): 1.1 μm
- Average Particle size After 8 months [1, 11]: 1.35 μm
- Relative Increase % (particle size) [1, 11]: 125%
- γi (interfacial tension between water and perfluorodecalin) [4]: 4.5 mNm^-1
- Spreading Coef. [4]: -4.6 mNm^-1
- concentration of which injection caused no deaths and did not perturb the normal growth [3]: 1000 µg/mL
- γs (surface tension) [5]: 23.0 mNm^-1
- activity ([6]; 10 g/l in 9% of NaCl): 96%
- viability ([6]; 10 g/l in 9% of NaCl): 102%

SMILES: C[N+](C)(C)CCOP(=O)([O-])OCCCCCCCCCCCC(F)(F)C(F)(F)C(F)(F)C(F)(F)C(F)(F)C(F)(F)C(F)(F)C(F)(F)F [Compound 6, [11-(F-octyl)undecyl] [2'-N,N,N trimethylamino ethyl] phosphate]
- Relative Increase % (particle size) [1, 7]: 44%
- Average Particle Size After 1 month at 50° C. [1, 8]: 0.36 μm
- Average Particle Size After Preparation [1, 8]: 0.25 μm
- Relative Increase % (particle size) [1, 9]: 110%
- Average Particle Size After Preparation [1, 10]: 0.17 μm
- Average Particle Size After 1 month [1, 10]: 0.36 μm
- γi (interfacial tension between water and perfluorodecalin) [4]: 9.4 mNm^-1
- Spreading Coef. [4]: -16.5 mNm^-1
- concentration of which injection caused no deaths and did not perturb the normal growth [3]: 1000 µg/mL
- γs (surface tension) [5]: 30.0 mNm^-1

Source: patent US5344930A, “Fluorine and phosphorous-containing amphiphilic molecules with surfactant properties” (Alliance Pharmaceutical Corp., priority 1993, dated 1994)
